US20190016689A1, “NOVEL FLUORINATED QUINAZOLINE DERIVATIVES AS EGFR INHIBITORS” (TRILLIUM THERAPEUTICS INC., priority 2016, published 2019)

How the values were obtained:
CYP 2D6 = CYP 2D6 (Homo sapiens, UniProt P10635); experiment: CYP450 inhibition; type: in vitro ADME
Method: (§1) Prepare stock solutions of the test compound and positive control compounds described in Table 8 in DMSO at 0, 0.2, 1, 2, 10, 50, 200, 2000 and 10000 μM. Transfer 1 μL of the stock solutions to the Incubation Plate. The final concentrations of test compound or positive control compound are 0, 0.001, 0.005, 0.01, 0.05, 0.25, 1, 10 and 50 μM. All experiments are performed in duplicate.

CYP 2C9 = CYP 2C9 (Homo sapiens, UniProt P11712); experiment: CYP450 inhibition; type: in vitro ADME
CYP 2C9, sequence (P11712 whole entry): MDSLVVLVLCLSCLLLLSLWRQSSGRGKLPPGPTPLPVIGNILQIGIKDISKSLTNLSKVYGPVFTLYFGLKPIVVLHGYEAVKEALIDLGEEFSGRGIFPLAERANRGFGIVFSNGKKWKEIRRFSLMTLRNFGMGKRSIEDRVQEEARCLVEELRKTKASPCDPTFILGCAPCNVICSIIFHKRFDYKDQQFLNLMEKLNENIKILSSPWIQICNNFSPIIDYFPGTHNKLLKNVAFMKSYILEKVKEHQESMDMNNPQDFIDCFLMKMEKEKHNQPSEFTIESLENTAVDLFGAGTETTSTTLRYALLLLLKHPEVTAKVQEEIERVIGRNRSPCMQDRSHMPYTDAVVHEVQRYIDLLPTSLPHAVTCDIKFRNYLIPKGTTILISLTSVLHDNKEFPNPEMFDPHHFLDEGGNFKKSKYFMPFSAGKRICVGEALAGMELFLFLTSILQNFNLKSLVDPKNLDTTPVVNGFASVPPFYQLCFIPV
Method: as §1

P-gp = experiment: in vitro; details: human, Caco-2, pH 7.4
Method: At this stage of growth, cell monolayers were fully polarized and differentiated.
The permeability assay buffer was Hanks Balanced Salt Solution containing 10 mM HEPES and 15 mM glucose at a pH of 7.4. The dosing buffer contained 5 μM metoprolol (positive control), 5 μM atenolol (negative control) and 100 μM lucifer yellow. The buffer in the receiver chamber also contained 1% bovine serum albumin (BSA). The dosing solution concentration was 5 μM in the assay buffer. Digoxin (20 μM) was used as Pgp substrate control.
The known Pgp inhibitor was co-dosed at 50 μM with compound at 5 μM.
Cell monolayers were dosed on the apical side (A-to-B) or basolateral side (B-to-A) and incubated at 37° C. in a shaker (65 rpm). Samples were taken from the donor and receiver chambers at 120 minutes. Each determination was performed in duplicate.
Narrow-window mass extraction LC/MS analysis was performed for all samples from this study using a Waters Xevo quadrupole time-of-flight (QTof) mass spectrometer, to determine relative peak areas of parent compound. The percent of transported drug was calculated based on these peak areas, relative to the initial, dosing concentration.

CYP 3A4 = CYP 3A4 (Homo sapiens, UniProt P08684); experiment: CYP450 inhibition; type: in vitro ADME; details: Testosterone
CYP 3A4, sequence (P08684 whole entry): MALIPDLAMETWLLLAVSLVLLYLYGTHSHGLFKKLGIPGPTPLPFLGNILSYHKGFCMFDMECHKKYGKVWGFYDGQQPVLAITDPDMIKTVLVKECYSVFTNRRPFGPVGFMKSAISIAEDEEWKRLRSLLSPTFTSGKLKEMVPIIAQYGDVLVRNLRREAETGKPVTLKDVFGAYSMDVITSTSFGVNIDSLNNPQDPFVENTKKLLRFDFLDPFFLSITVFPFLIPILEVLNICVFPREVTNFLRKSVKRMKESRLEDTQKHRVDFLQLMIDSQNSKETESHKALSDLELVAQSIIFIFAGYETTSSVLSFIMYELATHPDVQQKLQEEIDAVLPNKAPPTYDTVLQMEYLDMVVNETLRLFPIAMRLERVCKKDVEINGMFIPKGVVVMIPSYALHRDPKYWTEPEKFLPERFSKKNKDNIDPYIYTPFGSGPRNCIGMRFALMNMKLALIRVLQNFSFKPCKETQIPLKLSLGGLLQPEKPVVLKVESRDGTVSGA

hepatocytes = experiment: Metabolic stability (hepatocytes); type: in vitro ADME; details: 1 μM
Method: a) Place incubation medium (William's E Medium supplemented with GlutaMAX) and hepatocyte thawing medium in a 37° C. water bath, and allow warming for at least 15 minutes prior to use. b) Remove a vial of cryopreserved hepatocytes from storage, ensuring that vials remain at cryogenic temperatures until thawing process ensues. Thaw the cells by placing the vial in a 37° C. water bath and gently shaking the vials for 2 minutes. After thawing is completed, spray vial with 70% ethanol, transfer the vial to a biosafety cabinet. c) Use wide-bore pipette tip to transfer hepatocytes into 50 mL conical tube containing thawing medium. Place the 50 mL conical tube into a centrifuge and spin at 100 g for 10 minutes. Upon completion of spin, aspirate thawing medium and resuspend hepatocytes in enough incubation medium to yield ˜1.5×10^6 cells/mL. d) Using a Trypan Blue exclusion, count cells and determine the viable cell density. Cells with poor viability (<75% viability) are not acceptable for use. Dilute cells with incubation medium to a working cell density of 0.5×10^6 viable cells/mL. e) A portion of the hepatocytes at 0.5×10^6 viable cells/mL was boiled for 5 min prior to adding to the plate as negative control to eliminate the enzymatic activity so that little or no substrate turnover should be observed. The boiled hepatocytes are used to prepare negative control samples, which used to exclude the misleading factor that resulted from instability of chemical itself. Negative control wells are prepared in duplicate.
a) Pipette 198 μL of hepatocytes into each wells of a 96-well non-coated plate. Place the plate in the CO2 incubator at 37° C. on an orbital shaker to allow the hepatocytes to warm for 10 minutes. b) Pipette 2 μL of the 100 μM test compounds or positive control into respective wells of the 96-well plate to start the reaction. c) Return the plate to the incubator and place on an orbital shaker with a shaking speed of 150 rpm. The reaction for each compound will be performed in duplicate.
a) Remove 25 μL aliquots of reaction mixture at time points of 0, 15, 30, 60, 90 and 120 minutes. b) The aliquots are then mixed with 6 volumes (150 μL) of acetonitrile containing internal standards (IS: 100 nM alprazolam, 200 nM labetalol, and 2 μM ketoprofen) to terminate the reaction. Centrifuge the plate for 20 minutes at 3,800 g. Aliquots of 100 μL of the supernatants will be mixed with 100 μL ultrapure water and used for LC/MS/MS analysis.

BLK (B-lymphoid TK) = BLK (B-lymphoid TK) (Homo sapiens, UniProt P51451); experiment: Kinase assays, selectivity panel (qPCR); details: read-out: % Control @ 300 nM
BLK (B-lymphoid TK), sequence (P51451 whole entry): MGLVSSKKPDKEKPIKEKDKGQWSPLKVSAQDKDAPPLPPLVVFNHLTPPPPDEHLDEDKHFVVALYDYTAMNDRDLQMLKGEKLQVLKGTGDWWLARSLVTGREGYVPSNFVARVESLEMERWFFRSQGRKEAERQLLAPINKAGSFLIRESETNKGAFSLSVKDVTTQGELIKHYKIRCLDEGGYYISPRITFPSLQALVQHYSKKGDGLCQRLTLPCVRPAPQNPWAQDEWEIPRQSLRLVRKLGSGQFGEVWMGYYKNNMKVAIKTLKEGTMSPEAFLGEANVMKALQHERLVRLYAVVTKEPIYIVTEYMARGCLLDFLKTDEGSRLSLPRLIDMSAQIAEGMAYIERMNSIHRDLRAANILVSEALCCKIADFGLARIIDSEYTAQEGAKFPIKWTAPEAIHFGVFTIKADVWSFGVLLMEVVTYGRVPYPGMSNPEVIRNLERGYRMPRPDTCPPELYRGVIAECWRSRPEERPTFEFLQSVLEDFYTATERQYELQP

786-0 = experiment: NCI screening panel (SRB); type: cell-based; details: Homo sapiens, 786-0 (Renal), 48 h; for CC50: read-out: LC50 (the source's name)
TK-10 = experiment: NCI screening panel (SRB); type: cell-based; details: Homo sapiens, TK-10 (Renal), 48 h; for CC50: read-out: LC50 (the source's name)

CYP 2D6, sequence (P10635 whole entry): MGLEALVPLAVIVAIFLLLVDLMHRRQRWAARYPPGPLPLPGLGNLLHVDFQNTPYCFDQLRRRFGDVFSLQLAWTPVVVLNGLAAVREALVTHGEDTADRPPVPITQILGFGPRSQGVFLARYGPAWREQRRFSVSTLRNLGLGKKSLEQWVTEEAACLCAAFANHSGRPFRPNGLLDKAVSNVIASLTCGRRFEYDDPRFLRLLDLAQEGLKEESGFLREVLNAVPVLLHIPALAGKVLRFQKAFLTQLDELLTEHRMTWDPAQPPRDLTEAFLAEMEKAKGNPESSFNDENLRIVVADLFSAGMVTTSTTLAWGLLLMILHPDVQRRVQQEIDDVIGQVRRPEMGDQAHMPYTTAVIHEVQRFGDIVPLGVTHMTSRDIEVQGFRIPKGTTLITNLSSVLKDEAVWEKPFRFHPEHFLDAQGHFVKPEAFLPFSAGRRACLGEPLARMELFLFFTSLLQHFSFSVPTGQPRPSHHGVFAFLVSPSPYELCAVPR

Row | SMILES | IC50 (CYP 2D6) [µM] | IC50 (CYP 2C9) [µM] | efflux ratio at 120 min, 5 µM (P-gp) | IC50 (CYP 3A4) [µM] | % Remaining @ 120 min (hepatocytes; Dog hepatocytes) [%] | % Remaining @ 120 min (hepatocytes; Human hepatocytes) [%] | % Remaining @ 120 min (hepatocytes; Monkey hepatocytes) [%] | % Remaining @ 120 min (hepatocytes; Mouse hepatocytes) [%] | % Remaining @ 120 min (hepatocytes; Rat hepatocytes) [%] | remaining activity at 0.3 µM (BLK (B-lymphoid TK)) [%] | GI50 (786-0) [µM] | CC50 (786-0) [µM] | GI50 (TK-10) [µM] | CC50 (TK-10) [µM]
1 | CN(C)C/C=C/C(=O)Nc1cc2c(Nc3cccc(Cl)c3F)ncnc2cc1OCCOC(F)F.O=C(O)/C=C\C(=O)O [Example I-5-MA, (E)-N-[4-(3-chloro-2-fluoro-anilino)-7-[2-(difluoromethoxy)ethoxy]quinazolin-6-yl]-4-(dimethylamino)but-2-enamide dimaleic acid salt] | 25.7 | 30 | 0.48 | 42 | 47.29 | 82.95 | 21.97 | 36.27 | 59.08 | – | – | – | – | –
2 | CN(C)C/C=C/C(=O)Nc1cc2c(Nc3ccc(F)c(Cl)c3F)ncnc2cc1OCCOC(F)F.O=C(O)/C=C\C(=O)O.O=C(O)/C=C\C(=O)O [Example I-9-MA, (E)-N-[4-(3-chloro-2,4-difluoro-anilino)-7-[2-(difluoromethoxy)ethoxy]quinazolin-6-yl]-4-(dimethylamino)but-2-enamide di-maleic acid salt] | – | – | – | – | – | – | – | – | – | 0.5 | 0.248 | 26.6 | < 0.01 | 21.8
3 | O=C(/C=C/CN1CCCCC1)Nc1cc2c(Nc3ccc(F)c(Cl)c3F)ncnc2cc1OCCOC(F)F.O=C(O)/C=C\C(=O)O.O=C(O)/C=C\C(=O)O [Example I-10-MA, (E)-N-[4-(3-chloro-2,4-difluoro-anilino)-7-[2-(difluoromethoxy)ethoxy]quinazolin-6-yl]-4-(1-piperidyl)but-2-enamide di-maleic acid salt] | – | – | – | – | – | – | – | – | – | 0.3 | 0.929 | > 100 | < 0.01 | 35.1
4 | CN(C)C/C=C/C(=O)Nc1cc2c(Nc3ccc(F)c(Cl)c3)ncnc2cc1O[C@H]1CCOC1 [Afatinib, reference compound] | 28 | 34.7 | – | – | – | – | – | – | – | – | – | – | – | –
